The text below walks through data of publication PMC10385282, “Luteolin Protects Pancreatic β Cells against Apoptosis through Regulation of Autophagy and ROS Clearance” (Pharmaceuticals, 2023).

The target in this assay is T1, Drak2 (death-associated protein kinase-related apoptosis-inducing kinase-2) (Homo sapiens, UniProt O94768).
T1 construct: gene STK17B
T1 sequence (O94768 1-372): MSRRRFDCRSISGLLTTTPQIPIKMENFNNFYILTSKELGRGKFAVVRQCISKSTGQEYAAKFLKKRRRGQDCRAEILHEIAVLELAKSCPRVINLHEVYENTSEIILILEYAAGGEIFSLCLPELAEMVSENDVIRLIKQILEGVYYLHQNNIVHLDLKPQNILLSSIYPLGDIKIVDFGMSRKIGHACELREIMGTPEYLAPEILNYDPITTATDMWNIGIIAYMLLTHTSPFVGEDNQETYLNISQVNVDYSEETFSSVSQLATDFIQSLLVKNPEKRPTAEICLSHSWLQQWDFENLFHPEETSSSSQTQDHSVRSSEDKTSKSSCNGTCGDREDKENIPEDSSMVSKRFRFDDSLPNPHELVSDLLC
The assay can be described thus: biochemical. Details: ADP-Glo kinase assay, luminescence, residual Drak2 activity at 20 uM compound. As to conditions: read-out: % of control remaining. On the procedure:
ADP-Glo kits (Promega, Madison, WI; #V6903) were used for Drak2 inhibitor screening. Drak2 activity was measured and calculated from the amount of ADP generated from the enzyme reaction. The compounds were dissolved in DMSO and diluted to the indicated concentration for the screening assay. Drak2 and substrate ATP were diluted in 1X Buffer (HEPES 50 mM (pH 7.0), NaN3 0.02%, Orthovanadate 0.1 mM, 5 mM MgCl2, 0.01% (w/v) bovine serum albumin). The 5 µL kinase reaction was performed using 1X kinase buffer that contained 1 μL of compound, 2 μL of Drak2 (160 nM) and 2 μL of substrate ATP (20 μM), and incubated for 2 h at room temperature. Then, 2.5 μL of ADP-Glo™ Reagent was added to each reaction and incubated for 2 h at room temperature to deplete the remaining ATP. Finally, 5 μL of Kinase Detection Reagent was added to each reaction to convert ADP to ATP via the luciferase reaction, which was detected using an EnVision multilabel plate reader. 22b was used as a positive control in the assay. Our previous work validated that Drak2 inhibitors can prevent pancreatic β cells from undergoing lipotoxicity-induced cell apoptosis. Therefore, we established a kinase activity detection assay in vitro using the ADP-Glo^TM Kinase Assay kit (Promega, Madison, WI, USA) and screened the Natural Product and Derivatives Focus Library to identify small molecules that can inhibit Drak2 activity. […]

Regarding `O=c1cc(-c2ccc(O)c(O)c2)oc2cc(O)cc(O)c12` [luteolin], the remaining activity at 20 µM was determined as 7.74 ± 1.75%.
